The values below come from patent US7166744B2, “Retinoid derivatives and methods for producing said compounds and anti-cancer pharmaceutical composition comprising said compounds” (Chebigen Co., Ltd., priority 2001, dated 2007).

The test system of one assay is colon cancer cells. Put plainly: MTT proliferation assay, colon cancer cells (Table 1). As to conditions: 48 hours, concentration required for 50% growth inhibition, read-out: IC50, activities of various retinoid derivatives in colon cancer cells. The class given is cell-based. The protocol:
The effects of test compounds on proliferation of various cancer cells was examined by 3-(4,5-dimethylthiazol-2-yl)-2,5-diphenyltetrazolium bromide (MTT, Sigma) assay in a dose dependent manner. In the MTT assay, colon, liver, cervix, ovary, and breast cancer cell lines were treated with test compounds at various concentrations. Living cancer cells reduce MTT to dark blue MTT formazan that would be measured by absorbance.
Colon cancer cells, HCT116, DLD-1 and HT29, cervix cancer cells, HeLa and CaSki, ovary cancer cells, SKOV-3, 2774 and OVCAR-3, liver cancer cells, SK-Hep-1, PLCPRF5 and HepG2, and breast cancer cells, ZR75-1 and MDA-MB 231 were seeded at an initial density of 3000 cells per well in 96-well plates. After attachment of cells to the walls of the wells, the medium containing fresh retinoid was treated with various concentrations (0.5 μM, 1 μM, 2.5 μM, 5 μM, 10 μM) for 48 hours. 50 μl of MTT solution (2 mg/ml in PBS) was added to cell culture media. The reaction micture was incubated at 37° C. in a 5% CO2 atmosphere for 4 hours. The supernatant was removed and 150 μl of DMSO was added. The optical density was measured spectrophotometrically at 550 nm. […] For other retinoid derivatives according to the present invention, absorbances were measured by this procedure and IC50 values, concentrations required for 50% growth inhibition, were determined.
A general note: Tetrazolium assays rely on reduction of a dye to a coloured formazan, in cell work by metabolically active cells.
For orientation: IC50 means the concentration that gives 50% inhibition. In the case of “2-[(2E,4E,6E,8E)-3,7-Dimethyl-9-(2,6,6-trimethylcyclohex-1-enyl)-nona-2,4,6,8-tetraenoylamino]-5-hydroxyphenyl(dimethylamino)acetate [KCBG23]”, the IC50 was determined as 3.5 µM.

“4-(4-[(2E,4E,6E,8E)-3,7-dimethyl-9-(2,6,6-trimethyl-1-cyclohexenyl)-2,4,6,8-nonatetraenoyl]aminophenoxy)-4-oxobutanoic acid [KCBG32]”: the IC50 amounted to 5 µM.

In the case of “4-(4-[(2E,4E,6E,8E)-3,7-dimethyl-9-(2,6,6-trimethyl-1-cyclohexenyl)-2,4,6,8-nonatetraenoyl]aminophenoxy)-oxo-heptanedioic acid [KCBG53]”, the IC50 came out at 6.5 µM.

For the compound “4-(4-[(2E,4E,6E,8E)-3,7-dimethyl-9-(2,6,6-trimethyl-1-cyclohexenyl)-2,4,6,8-nonatetraenoyl]aminophenoxy)-oxo-hexanedioic acid [KCBG51]”, the IC50 was found to be 4.5 µM.

For `CC1=C(/C=C/C(C)=C/C=C/C(C)=C/C(=O)Nc2ccc(O)cc2O)C(C)(C)CCC1` [KCBG08, (2E,4E,6E,8E)-[3,7-dimethyl-9-(2,6,6-trimethylcyclohex-1-enyl)-nona-2,4,6,8-tetraenoyl]-(2,4-dihydroxy)phenylamide], the IC50 is over 100 µM.

Regarding `CCCC(=O)Oc1ccc(NC(=O)C=C(C)C=CC=C(C)C=CC2=C(C)CCCC2(C)C)c(OC(=O)CCC)c1` [KCBG09, 5-Butyryloxy-2-[3,7-dimethyl-9-(2,6,6-trimethylcyclohex-1-enyl)-nona-2,4,6,8-tetraenoylamino]-phenylbutanoate], the IC50 lay in the range of 10 to 20 µM.

As for `CCC(=O)Oc1cc(O)ccc1NC(=O)/C=C(C)/C=C/C=C(C)/C=C/C1=C(C)CCCC1(C)C` [KCBG15, 2-[(2E,4E,6E,8E)-3,7-dimethyl-9-(2,6,6-trimethylcyclohex-1-enyl)-nona-2,4,6,8-tetraenoylamino]-5-hydroxyphenylpropionate], the IC50 worked out at 8 µM.

`CC(=O)C(=O)Oc1cc(O)ccc1NC(=O)/C=C(C)/C=C/C=C(C)/C=C/C1=C(C)CCCC1(C)C` [KCBG22, 2-[(2E,4E,6E,8E)-3,7-dimethyl-9-(2,6,6-trimethylcyclohex-1-enyl)-nona-2,4,6,8-tetraenoylamino]-5-hydroxyphenyl-2-oxopropionate]: the IC50 was 6 µM.

`CCCC(=O)Oc1ccc(NC(=O)/C=C(C)/C=C/C=C(C)/C=C/C2=C(C)CCCC2(C)C)cc1OC(=O)CCC` [KCBG34, 2-Butyryloxy-5-(2E,4E,6E,8E)-[3,7-dimethyl-9-(2,6,6-trimethylcyclohex-1-enyl)-nona-2,4,6,8-tetraenoylamino]phenylbutanoate]: the concentration for half-maximal inhibition (IC50) stood at 3 µM.

Take `CCCC(=O)Oc1cc(NC(=O)/C=C(C)/C=C/C=C(C)/C=C/C2=C(C)CCCC2(C)C)ccc1O` [KCBG35, 5-(2E,4E,6E,8E)-[3,7-dimethyl-9-(2,6,6-trimethylcyclohex-1-enyl)-nona-2,4,6,8-tetraenoylamino]-2-hydroxyphenylbutanoate]: the IC50 turned out to be 2 µM.

Regarding `CCC(=O)C(=O)Oc1cc(O)ccc1NC(=O)/C=C(C)/C=C/C=C(C)/C=C/C1=C(C)CCCC1(C)C` [KCBG38, 2-[(2E,4E,6E,8E)-3,7-dimethyl-9-(2,6,6-trimethylcyclohex-1-enyl)-nona-2,4,6,8-tetraenoylamino]-5-hydroxyphenyl 2-oxobutanoate], the IC50 came out at 2 µM.

Regarding `CC1=C(/C=C/C(C)=C/C=C/C(C)=C/C(=O)Nc2ccc(O)cc2OC(=O)CC(C)O)C(C)(C)CCC1` (stereo not drawn) [KCBG39, 2-[(2E,4E,6E,8E)-3,7-dimethyl-9-(2,6,6-trimethylcyclohex-1-enyl)-nona-2,4,6,8-tetraenoylamino]-5-hydroxyphenyl-3-hydroxybutanoate], the IC50 came to 3 µM.

In the case of `CCCC(=O)Nc1ccc(NC(=O)/C=C(C)/C=C/C=C(C)/C=C/C2=C(C)CCCC2(C)C)cc1` [KCBG40, (2E,4E,6E,8E)-[3,7-dimethyl-9-(2,6,6-trimethylcyclohex-1-enyl)-nona-2,4,6,8-tetraenoylamino]-(4-butyrylamino)phenylamide], the IC50 came to 0.6 µM.

As for `CCCC(=O)Nc1cc(NC(=O)/C=C(C)/C=C/C=C(C)/C=C/C2=C(C)CCCC2(C)C)ccc1OC(=O)CCC` [KCBG42, 2-Butyrylamino-4-(2E,4E,6E,8E)-[3,7-dimethyl-9-(2,6,6-trimethylcyclohex-1-enyl)-nona-2,4,6,8-tetraenoylamino]-phenylbutanoate], the IC50 was 7 µM.

In the case of `CCCCS(=O)(=O)Oc1ccc(NC(=O)/C=C(C)/C=C/C=C(C)/C=C/C2=C(C)CCCC2(C)C)cc1` [KCBG43, 4-[(2E,4E,6E,8E)-3,7-dimethyl-9-(2,6,6-trimethyl-1-cyclohexenyl)-2,4,6,8-nonatetraenoyl]aminophenyl-1-butanesulfonate], the IC50 stood at 4 µM.

As for `CC(=O)C(=O)Oc1ccc(NC(=O)/C=C(C)/C=C/C=C(C)/C=C/C2=C(C)CCCC2(C)C)cc1` [KCBG45, 4-[(2E,4E,6E,8E)-3,7-dimethyl-9-(2,6,6-trimethyl-1-cyclohexenyl)-2,4,6,8-nonatetraenoyl]aminophenyl-2-oxopropanoate], the IC50 was 7 µM.

With `CCC(=O)C(=O)Oc1ccc(NC(=O)/C=C(C)/C=C/C=C(C)/C=C/C2=C(C)CCCC2(C)C)cc1` [KCBG47, 4-[(2E,4E,6E,8E)-3,7-dimethyl-9-(2,6,6-trimethyl-1-cyclohexenyl)-2,4,6,8-nonatetraenoyl]aminophenyl-2-oxobutanoate], the IC50 is 1.8 µM.

`CC1=C(/C=C/C(C)=C/C=C/C(C)=C/C(=O)Nc2ccc(OC(=O)CCC(=O)O)cc2)C(C)(C)CCC1` [KCBG50, 4-(4-[(2E,4E,6E,8E)-3,7-dimethyl-9-(2,6,6-trimethyl-1-cyclohexenyl)-2,4,6,8-nonatetraenoyl]aminophenoxy)-4-oxobutanoic acid]: the IC50 was 5.5 µM.

As for `CC(=O)NC(CCC(N)=O)C(=O)Oc1ccc(NC(=O)/C=C(C)/C=C/C=C(C)/C=C/C2=C(C)CCCC2(C)C)cc1` (stereo not drawn) [KCBG52, 4-[(2E,4E,6E,8E)-3,7-dimethyl-9-(2,6,6-trimethylcyclohex-1-enyl)-nona-2,4,6,8-tetraenoylamino]phenyl-2-acetylamino-4-carbamoylbutanoate], the IC50 is 7 µM.

Consider `CC1=C(/C=C/C(C)=C/C=C/C(C)=C/C(=O)Nc2ccc(OC(=O)CCCCCCC(=O)O)cc2)C(C)(C)CCC1` [KCBG54, 4-(4-[(2E,4E,6E,8E)-3,7-dimethyl-9-(2,6,6-trimethyl-1-cyclohexenyl)-2,4,6,8-nonatetraenoyl]aminophenoxy)-oxo-octanedionic acid], for which the IC50 turned out to be 3.5 µM.

For the next assay, the system named is HCT116 colon cancer cells. Put plainly: DAPI staining of nuclei, HCT116. Particulars: HCT116, 5 μM, 36 h. It is filed as cell-based. The protocol:
By DAPI (4,6-diamidino-2-phenylindole) staining assay for staining DNA in cellular nucleus, nuclear condensation and fragmentation, characteristic features of apoptosis, were observed. […] In FIG. 4, the control represents non-treated cells. The sub-G1 DNA contents of colon cancer HTC116 cells and breast cancer MCF-7 cells were measured by FACS (Fluorescence-Activated Cell Sorter) assay to quantify the apoptosis (FIG. 5). Finally, in order to further characterize the apoptosis observed in retinoid derivative-treated cells, the cleavage of apoptosis-related proteins, including PARP (poly(ADP-ribose)polymerase) and CPP32 (caspase-3) by Western blotting. […] PARP cleavage occurred in a time-dependent manner, in parallel with the induction of apoptosis (FIG. 6B). C in FIG. 6 represents the result of Western blotting of non-treated cells.
Meanwhile, HPR which is a precursor during the synthesis process of KCBG60 is known to induce apoptosis. Considering that the cells aggregated into small spherical mass upon treatment with KCBG60, KCBG60 is expected to induce apoptosis. In order to confirm apoptosis induced by KCBG60 once again, KCBG60-treated HCT116 cells were stained with DAPI and observed for nuclear condensation, an indicative of apoptosis (FIG. 12).
For `CCCC(=O)Nc1ccc(NC(=O)/C=C(C)/C=C/C=C(C)/C=C/C2=C(C)CCCC2(C)C)cc1` [KCBG40, (2E,4E,6E,8E)-[3,7-dimethyl-9-(2,6,6-trimethylcyclohex-1-enyl)-nona-2,4,6,8-tetraenoylamino]-(4-butyrylamino)phenylamide], the “nuclear condensation and fragmentation (DAPI)” value is on record as “largely showed nuclear fragmentation”.

The test system of the next assay is MMP-1 mRNA expression. The assay can be described thus: RT-PCR of MMP-1 mRNA in HCT116. The class given is cell-based. As to conditions: HCT116, 1 μM, 36 hours. The protocol:
(§1) Previously, it was shown that the synthetic retinoid derivatives inhibit the transcriptional activity of AP-1. Also, it is well known that MMP (matrix metalloproteinase), a main target gene of AP-1 is involved in metastasis of cancer cells. Therefore, the inhibitive effects of the retinoid derivatives on metastasis of cancer was examined by RT-PCR analysis. Colon cancer HCT116 cells were treated with 1 μM retinoid for 36 hours. RNA was isolated from the cells and mRNA expression levels of MMP-1, -2 and -3 were analyzed by RT-PCR. […] As the control, GAPDH was used and it was confirmed that its expression was not affected by retinoid. Meanwhile, the expression level of MMP-3 was affected weakly by KCBG40, intermediately by KCBG41 but strongly by KCBG10 (FIG. 9).
(§2) RNA was isolated from the cells and mRNA expression levels of MMP-1, -2 and -3 were analyzed by RT-PCR (FIG. 14).
Turning to `CCCC(=O)Nc1ccc(NC(=O)/C=C(C)/C=C/C=C(C)/C=C/C2=C(C)CCCC2(C)C)cc1` [KCBG40, (2E,4E,6E,8E)-[3,7-dimethyl-9-(2,6,6-trimethylcyclohex-1-enyl)-nona-2,4,6,8-tetraenoylamino]-(4-butyrylamino)phenylamide], the “inhibition of MMP-1 mRNA expression” value was “affected very little”.

The test system of another assay is MMP-2 mRNA expression. Put plainly: RT-PCR of MMP-2 mRNA in HCT116. The class given is cell-based. Particulars: HCT116, 1 μM, 36 hours. The protocol: as §1, §2
For `CCCC(=O)Nc1ccc(NC(=O)/C=C(C)/C=C/C=C(C)/C=C/C2=C(C)CCCC2(C)C)cc1` [KCBG40, (2E,4E,6E,8E)-[3,7-dimethyl-9-(2,6,6-trimethylcyclohex-1-enyl)-nona-2,4,6,8-tetraenoylamino]-(4-butyrylamino)phenylamide], the “inhibition of MMP-2 mRNA expression” value is reported as “affected very little”.

Another assay concerns MMP-3 mRNA expression. Put plainly: RT-PCR of MMP-3 mRNA in HCT116. The class given is cell-based. Particulars: HCT116, 1 μM, 36 hours. The protocol:
as §1
As for `CCCC(=O)Nc1ccc(NC(=O)/C=C(C)/C=C/C=C(C)/C=C/C2=C(C)CCCC2(C)C)cc1` [KCBG40, (2E,4E,6E,8E)-[3,7-dimethyl-9-(2,6,6-trimethylcyclohex-1-enyl)-nona-2,4,6,8-tetraenoylamino]-(4-butyrylamino)phenylamide], the “effect on MMP-3 mRNA expression level” value was “weakly”.
